In patent publication US6914045B2, “Glycopeptide antibiotics” (Wyeth Holdings Corporation, priority 2001, dated 2005):
≈ marks a conversion by molar mass, not a printed value.

How the values were obtained:
Test in all cases: in vitro antibacterial evaluation, MIC by broth dilution
Assay type in all cases: cell-based
Streptococcus sp. = conditions: broth dilution, 18 hours at 35° C.
Summary of the method: (§1)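 Test organisms, which included recent clinical isolates resistant to methicillin, penicillin and/or vancomycin, were inoculated at 5×10^5 CFU/mL into Muller-Hinton II […] containing antibiotic at 64-0.06 μg/mL. Minimum inhibitory concentrations were then read as the lowest level inhibiting growth.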

Enterococcus sp. = conditions: broth dilution, 18 hours at 35° C.
Summary of the method: as §1

Escherichia coli = conditions: 18 hours at 35° C.
Summary of the method: as §1

Staphylococcus sp. = conditions: broth dilution, 18 hours at 35° C.
Summary of the method: as §1

- MIC Streptococcus agalactiae (GC 4564) (Streptococcus sp.; Streptococcus agalactiae (GC 4564)): 2 µg/mL (≈ 1.44 µM)
- MIC Streptococcus pneumoniae (ATCC 6301) (Streptococcus sp.; Streptococcus pneumoniae (ATCC 6301)): 1 µg/mL (≈ 0.72 µM)
- MIC Streptococcus pneumoniae (GC 1894) (Streptococcus sp.; Streptococcus pneumoniae (GC 1894)): 1 µg/mL (≈ 0.72 µM)
- MIC Streptococcus pneumoniae (GC 4565) (Streptococcus sp.; Streptococcus pneumoniae (GC 4565)): 2 µg/mL (≈ 1.44 µM)
- MIC Streptococcus pyogenes (GC 4563) (Streptococcus sp.; Streptococcus pyogenes (GC 4563)): 0.5 µg/mL (≈ 0.36 µM)
- MIC Streptococcus pneumoniae (ATCC 6301) (Streptococcus sp.; strain ATCC 6301): 1 µg/mL (≈ 0.72 µM)
- MIC Streptococcus pneumoniae (GC 1894) (Streptococcus sp.; strain GC 1894): 1 µg/mL (≈ 0.72 µM)
- MIC Streptococcus pyogenes (GC 4563) (Streptococcus sp.; strain GC 4563): 0.5 µg/mL (≈ 0.36 µM)
- MIC Streptococcus agalactiae (GC 4564) (Streptococcus sp.; strain GC 4564): 2 µg/mL (≈ 1.44 µM)
- MIC Streptococcus pneumoniae (GC 4565) (Streptococcus sp.; strain GC 4565): 2 µg/mL (≈ 1.44 µM)
- MIC Enterococcus avium (GC 4558) (Enterococcus sp.; Enterococcus avium (GC 4558)): 16 µg/mL (≈ 11.5 µM)
- MIC Enterococcus faecalis (ATCC 29212) (Enterococcus sp.; Enterococcus faecalis (ATCC 29212)): 8 µg/mL (≈ 5.76 µM)
- MIC Enterococcus faecalis (GC 2242) (Enterococcus sp.; Enterococcus faecalis (GC 2242)): 8 µg/mL (≈ 5.76 µM)
- MIC Enterococcus faecalis (GC 2691) (Enterococcus sp.; Enterococcus faecalis (GC 2691)): 16 µg/mL (≈ 11.5 µM)
- MIC Enterococcus faecalis (GC 3059) (Enterococcus sp.; Enterococcus faecalis (GC 3059)): 16 µg/mL (≈ 11.5 µM)
- MIC Enterococcus faecalis (GC 4552) (Enterococcus sp.; Enterococcus faecalis (GC 4552)): 8 µg/mL (≈ 5.76 µM)
- MIC Enterococcus faecalis (GC 4553) (Enterococcus sp.; Enterococcus faecalis (GC 4553)): 16 µg/mL (≈ 11.5 µM)
- MIC Enterococcus faecalis (GC 4554) (Enterococcus sp.; Enterococcus faecalis (GC 4554)): 16 µg/mL (≈ 11.5 µM)
- MIC Enterococcus faecalis (GC 6189) (Enterococcus sp.; Enterococcus faecalis (GC 6189)): 8 µg/mL (≈ 5.76 µM)
- MIC Enterococcus faecium (GC 2243) (Enterococcus sp.; Enterococcus faecium (GC 2243)): 8 µg/mL (≈ 5.76 µM)
- MIC Enterococcus faecium (GC 4556) (Enterococcus sp.; Enterococcus faecium (GC 4556)): 8 µg/mL (≈ 5.76 µM)
- MIC Enterococcus faecium (GC 4557) (Enterococcus sp.; Enterococcus faecium (GC 4557)): 8 µg/mL (≈ 5.76 µM)
- MIC Enterococcus faecalis (ATCC 29212) (Enterococcus sp.; strain ATCC 29212): 8 µg/mL (≈ 5.76 µM)
- MIC Enterococcus faecalis (GC 2242) (Enterococcus sp.; strain GC 2242): 8 µg/mL (≈ 5.76 µM)
- MIC Enterococcus faecium (GC 2243) (Enterococcus sp.; strain GC 2243): 8 µg/mL (≈ 5.76 µM)
- MIC Enterococcus faecalis (GC 2691) (Enterococcus sp.; strain GC 2691): 16 µg/mL (≈ 11.5 µM)
- MIC Enterococcus faecalis (GC 3059) (Enterococcus sp.; strain GC 3059): 16 µg/mL (≈ 11.5 µM)
- MIC Enterococcus faecalis (GC 4552) (Enterococcus sp.; strain GC 4552): 8 µg/mL (≈ 5.76 µM)
- MIC Enterococcus faecalis (GC 4553) (Enterococcus sp.; strain GC 4553): 16 µg/mL (≈ 11.5 µM)
- MIC Enterococcus faecalis (GC 4554) (Enterococcus sp.; strain GC 4554): 16 µg/mL (≈ 11.5 µM)
- MIC Enterococcus faecium (GC 4556) (Enterococcus sp.; strain GC 4556): 8 µg/mL (≈ 5.76 µM)
- MIC Enterococcus faecium (GC 4557) (Enterococcus sp.; strain GC 4557): 8 µg/mL (≈ 5.76 µM)
- MIC Enterococcus avium (GC 4558) (Enterococcus sp.; strain GC 4558): 16 µg/mL (≈ 11.5 µM)
- MIC Enterococcus faecalis (GC 6189) (Enterococcus sp.; strain GC 6189): 8 µg/mL (≈ 5.76 µM)
- MIC Escherichia coli (ATCC 25922) (Escherichia coli; strain ATCC 25922): >64 µg/mL
- MIC Escherichia coli (GC 4559) (Escherichia coli; strain GC 4559): >64 µg/mL
- MIC Escherichia coli (GC 4560) (Escherichia coli; strain GC 4560): 8 µg/mL (≈ 5.76 µM)
- MIC Staphylococcus aureus (ATCC 29213) (Staphylococcus sp.): 8 µg/mL (≈ 5.76 µM)
- MIC Staphylococcus aureus (GC 1131) (Staphylococcus sp.): 8 µg/mL (≈ 5.76 µM)
- MIC Staphylococcus aureus (GC 3051) (Staphylococcus sp.): 8 µg/mL (≈ 5.76 µM)
- MIC Staphylococcus aureus (GC 3053) (Staphylococcus sp.): 8 µg/mL (≈ 5.76 µM)
- MIC Staphylococcus aureus (GC 4541) (Staphylococcus sp.): 4 µg/mL (≈ 2.88 µM)
- MIC Staphylococcus aureus (GC 4542) (Staphylococcus sp.): 4 µg/mL (≈ 2.88 µM)
- MIC Staphylococcus aureus (GC 4544) (Staphylococcus sp.): 8 µg/mL (≈ 5.76 µM)
- MIC Staphylococcus aureus (GC 4545) (Staphylococcus sp.): 8 µg/mL (≈ 5.76 µM)
- MIC Staphylococcus aureus (GC 1131) (Staphylococcus sp.; inoculum 5×10^5 CFU/mL, strain GC 1131): 8 µg/mL (≈ 5.76 µM)
- MIC Staphylococcus aureus (ATCC 29213) (Staphylococcus sp.; strain ATCC 29213): 8 µg/mL (≈ 5.76 µM)
- MIC Staphylococcus aureus (GC 3051) (Staphylococcus sp.; strain GC 3051): 8 µg/mL (≈ 5.76 µM)
- MIC Staphylococcus aureus (GC 3053) (Staphylococcus sp.; strain GC 3053): 8 µg/mL (≈ 5.76 µM)
- MIC Staphylococcus aureus (GC 4541) (Staphylococcus sp.; strain GC 4541): 4 µg/mL (≈ 2.88 µM)
- MIC Staphylococcus aureus (GC 4542) (Staphylococcus sp.; strain GC 4542): 4 µg/mL (≈ 2.88 µM)
- MIC Staphylococcus aureus-SMITH (GC 4543) (Staphylococcus sp.; strain GC 4543): 4 µg/mL (≈ 2.88 µM)
- MIC Staphylococcus aureus (GC 4544) (Staphylococcus sp.; strain GC 4544): 8 µg/mL (≈ 5.76 µM)
- MIC Staphylococcus aureus (GC 4545) (Staphylococcus sp.; strain GC 4545): 8 µg/mL (≈ 5.76 µM)
- MIC Coagulase Negative Staphylococcus (GC 4547) (Staphylococcus sp.; strain GC 4547): 8 µg/mL (≈ 5.76 µM)
- MIC Coagulase Negative Staphylococcus (GC 4548) (Staphylococcus sp.; strain GC 4548): 4 µg/mL (≈ 2.88 µM)
- MIC Coagulase Negative Staphylococcus (GC 4549) (Staphylococcus sp.; strain GC 4549): 4 µg/mL (≈ 2.88 µM)
- MIC Coagulase Negative Staphylococcus (GC 4551) (Staphylococcus sp.; strain GC 4551): 8 µg/mL (≈ 5.76 µM)
- MIC Coagulase Negative Staphylococcus (GC 6257) (Staphylococcus sp.; strain GC 6257): 4 µg/mL (≈ 2.88 µM)
- MIC Staphylococcus aureus-SMITH (GC 4543) (Staphylococcus sp.; strain SMITH GC 4543): 4 µg/mL (≈ 2.88 µM)
SMILES: CC(C)=CCCC1OCC2OC(OC3C(CO)OC(Oc4ccc(CC5NC(=O)C(C(C)c6ccccc6)NC(=O)CNC(=O)C(CO)NC(=O)C(C(O)C6CNC(=N)N6C6OC(CO)C(O)C(O)C6O)NC(=O)C(C(O)C6CNC(=N)N6)NC5=O)cc4)C(O)C3O)C(O)C(O)C2O1 (stereo not shown) [Example 123]
- MIC Staphylococcus haemolyticus (GC 4546) (Staphylococcus sp.; strain GC 4546): 8 µg/mL (≈ 5.76 µM)
